Laboratory results taken from PMC12316777.
Where two headings read alike, the source gives them in different places.

What was measured:
[1] = target: SARS-CoV-2 nsp14/nsp10 complex (Severe acute respiratory syndrome coronavirus 2, UniProt P0DTD1); assay: FRET-based exoribonuclease (ExoN) activity assay; type: biochemical; settings: for IC50: nsp14/nsp10 pre-incubated with compound 1 h, n = 3, read-out: IC50 (± SD) ExoN
[2] = tested on: SARS-CoV-2 Omicron BA.5 in VeroE6-TMPRSS2 cells; assay: Plaque reduction assay; type: cell-based; settings: VeroE6-TMPRSS2, n = 2, read-out: EC50, inhibition of SARS-CoV-2 virus replication
SARS-CoV-2 nsp14 [3] = target: T1, SARS-CoV-2 nsp14 (Severe acute respiratory syndrome coronavirus 2, UniProt P0DTD1); type: biochemical; settings: for IC50: read-out: IC50 (± SD) MTase; for Km: increasing molar equivalents of Au(I)
SARS-CoV-2 nsp14 [4] = target: T1, SARS-CoV-2 nsp14; assay: Metal displacement analysis (equilibrium dialysis, ICP-MS), nsp14; type: binding
Excerpt: (§1) Since nsp14 and nsp10 have 3 and 2 zinc-finger motifs respectively, playing structural roles and as well as being important to the functions of nsp14/nsp10 complex. The soft nature of Au(I) makes it very likely to bind to the thiolates/nitrogen atoms in these cysteine/histidine-rich zinc-binding sites. To verify this, we then investigated the binding of Au(I) to the native nsp14 and nsp10 using equilibrium dialysis and determined the metal contents by inductively coupled plasma mass spectrometry (ICP-MS). […] Similarly, ca. 1.84 ± 0.66 mol equiv of Au(I) bound to per nsp10, accompanied by ca. 1.89 ± 0.28 mol equiv of Zn(II) release. […] In addition, since the ExoN activity of nsp14 is largely stimulated by nsp10, and nsp10 − nsp14 intermolecular interaction involves residues around the zinc finger of nsp10 [33, 34], we also examined the influence of Au(I) binding to nsp10 on the ExoN activity of nsp14.
(§2) Au(I) binding and Zn(II) release on nsp10 and nsp14 were determined by Inductively Coupled Plasma Mass Spectrometry (ICP-MS) on Agilent 7700 × ICP-MS (Agilent Technologies). […] Dialysis tubes loaded with 100 μL Zn-bound proteins (5 μM for nsp14 and nsp13 and 20 μM for nsp10) or protein buffer were placed into 50 mL dialysis buffer in the presence of different concentrations of Au(I) compounds (as Au(PEt3)Cl) with mild shaking at 18 °C overnight. The protein concentration was measured by bicinchoninic acid (BCA) assay, and the metal concentration of solution both inside and outside the dialysis tubes was determined by ICP-MS.

SARS-CoV-2 nsp14 [5] = target: T1, SARS-CoV-2 nsp14; assay: Circular dichroism spectroscopy of nsp14 (BeStSel); settings: CD deconvoluted by BeStSel; around 65% in untreated nsp14
SARS-CoV-2 nsp14 [6] = target: T1, SARS-CoV-2 nsp14; assay: EMSA of nsp14 binding to dsRNA ExoN substrate; settings: 4 µM nsp14, 0–40 µM drug, 200 nM dsRNA
Excerpt: Next, we explored the inhibition mechanism of nsp14/nsp10 by Au(I). We first investigated the inhibition mode of Au(I) on the dual activities of nsp14, for which we selected Au(PEt3)Cl as a showcase. To explore the influence of Au(I) on the kinetics of the nsp14/nsp10 ExoN activity, a 20-nucleotide 5′-dU overhang conjugated to a Cy3/BHQ2 pair was used as an RNA duplex substrate. Then, the reciprocals of the reaction velocity and the concentration of the two substrates were used to plot the Lineweaver–Burk plot. And the Michaelis–Menten constant (Km) and the maximum reaction rate (Vmax) were calculated by nonlinear fitting to the Michaelis − Menten equation.
RNA-binding capability of nsp14 was determined by EMSA. […] For the bismuth(III) and Au(I) addition assays, nsp14 (4 µM) was pre-incubated with various concentrations of drugs (0, 1, 2, 4, 8, 20, 40 µM) in HEPES buffer for 2 h on ice before the RNA-binding assays before incubating with 200 nM of dsRNA at room temperature for 15 min. A 20 µL of the reaction mixture was then loaded onto 6% native-polyacrylamide gels and electrophoresed in 1xTBE buffer. Electrophoresis was carried out at 100 V for 50 min. Gels were subsequently stained by GelRed (Sigma Aldrich) for 5 min at room temperature and visualized through iBright™ CL750 Imaging System (Thermo Fisher Scientific).
ExoN substrates. Relative band intensities were quantified by ImageJ. […]

SARS-CoV-2 nsp14 [7] = target: T1, SARS-CoV-2 nsp14; assay: Size-exclusion chromatography of nsp14; settings: 0−10 molar equivalents; monomer peak 9.6 mL decreases, peak at ca. 9.1 mL appears
SARS-CoV-2 nsp10 = SARS-CoV-2 nsp10 (Severe acute respiratory syndrome coronavirus 2, UniProt P0DTD1); assay: Metal displacement analysis (equilibrium dialysis, ICP-MS), nsp10; type: binding
Excerpt: as §1, §2

nsp14 (ExoN/N7-MTase) = nsp14 (ExoN/N7-MTase) (SARS-CoV-2 isolate Wuhan-Hu-1, UniProt P0DTD1 5926-6452); assay: EMSA; no Au(I); 200 nM dsRNA, nsp14 0-8 uM; settings: protein: recombinant; tags: N-terminal 6xHis, removed with thrombin; label: 5'-Cy3 on top strand; labels in EMSA not restated
[8] = nsp14 pre-incubated with compound 1 h, n = 3

Molecule: [Cl][Au][PH]12CN3CN(CN(C3)C1)C2 [Urotropine-Au-Cl]
- ExoN enzyme activity remaining ([1]; 50 mol equiv of compound): 0.68%

Molecule: CC(=O)OC[C@H]1O[C@@H]([S-])[C@H](OC(C)=O)[C@@H](OC(C)=O)[C@@H]1OC(C)=O.CCP(CC)CC.[Au+] [auranofin]
- EC50 [2]: 730 ± 210 nM

Molecule: (1-(adamantan-1-yl)thiourea)-(triethylphosphine)-gold(I) [Au-amantadine]
- IC50 (SARS-CoV-2 nsp14 [3]; [8]): 8160 ± 180 nM
- IC50 [1]: 1570 ± 120 nM

Molecule: [Cl][Au] [AuCl, gold(I) chloride]
- IC50 (SARS-CoV-2 nsp14 [3]; [8]): 910 ± 10 nM
- IC50 [1]: 5780 ± 310 nM

Molecule: CCP(CC)CC.[Au+].[Cl-] [Au(PEt3)Cl, chloro(triethylphosphine)gold(I)]
- Vmax, G(5′)ppp(5′)A RNA-dependent MTase kinetics (SARS-CoV-2 nsp14 [3]): 0.12 µM/min
- Vmax, SAM-dependent MTase kinetics (SARS-CoV-2 nsp14 [3]): 0.09 µM/min
- mode of inhibition of MTase activity (SARS-CoV-2 nsp14 [3]; SAM- and GpppA-RNA-dependent kinetics): noncompetitive
- Km (SARS-CoV-2 nsp14 [3]; read-out: Km, G(5′)ppp(5′)A RNA-dependent MTase kinetics): 1.18 ± 0.02 µM
- Km (SARS-CoV-2 nsp14 [3]; read-out: Km, SAM-dependent MTase kinetics): 1.62 ± 0.02 µM
- IC50 (SARS-CoV-2 nsp14 [3]; [8]): 4500 ± 980 nM
- Au(I) bound per nsp14 (SARS-CoV-2 nsp14 [4]; equilibrium dialysis, ICP-MS): ca. 2.95 ± 0.23 mol equiv
- Zn(II) release from nsp14 (SARS-CoV-2 nsp14 [4]; equilibrium dialysis, ICP-MS): ca. 2.56 ± 0.21 mol equiv
- maximal binding capacity (Bmax), nsp14 (SARS-CoV-2 nsp14 [4]; fit to specific binding plot): 3.10 ± 0.32
- Kd (SARS-CoV-2 nsp14 [4]; fit to specific binding plot, read-out: dissociation constant (Kd), nsp14): 6540 ± 330 nM
- mode of inhibition of ExoN activity ([1]; Lineweaver–Burk / Michaelis–Menten analysis): noncompetitive
- Vmax, ExoN kinetics ([1]; decreased from 2.7 with different molar equivalents of Au(I)): 0.5 nM/min
- IC50 [1]: 380 ± 40 nM
- helix content in nsp14 after treatment (SARS-CoV-2 nsp14 [5]): 36%
- effect on formation of the nsp14−RNA complex (SARS-CoV-2 nsp14 [6]): negligible effects
- effect on quaternary structure of nsp14 (SARS-CoV-2 nsp14 [7]): partial oligomerization
- Au(I) bound per nsp10 (SARS-CoV-2 nsp10; equilibrium dialysis, ICP-MS): ca. 1.84 ± 0.66 mol equiv
- Zn(II) release from nsp10 (SARS-CoV-2 nsp10; equilibrium dialysis, ICP-MS): ca. 1.89 ± 0.28 mol equiv
- maximal binding capacity (Bmax), nsp10 (SARS-CoV-2 nsp10; fit to specific binding plot): 1.75 ± 0.60
- Kd (SARS-CoV-2 nsp10; fit to specific binding plot, read-out: dissociation constant (Kd), nsp10): 6550 ± 770 nM

Molecule: O=S(=O)([O-])[S-].O=S(=O)([O-])[S-].[Au+].[Na+].[Na+].[Na+] [Na3Au(S2O3)2, gold(I) sodium thiosulfate]
- IC50 (SARS-CoV-2 nsp14 [3]): 1770 ± 10 nM
- IC50 [1]: 1710 ± 90 nM

B1: ExoN substrate dsRNA (dsRNA)
RNA 1: GGUAGUAAUCCGCUC
RNA 2: UUUUUUUUUUUUUUUUUUUUGAGCGGAUUACUACUACC
- binding result (nsp14 (ExoN/N7-MTase)): binds
